# Marks after values point to notes of the source that are not given here.
# Tested on: mouse organs
# Assay: In vivo activity screening in mice: organ mean total flux (p/s) of luciferase activity after injection of F2 LNP pools (Table 6, FIG. 7A-7C)
# Conditions: Mouse 5, dose 0.5 mg/kg, luciferase mRNA
# Method: Small rodent biodistribution studies were performed in mice (e.g., C57BL/6J, Balb-c, CD-1, etc.). For evaluating LNP biodistribution and tissue activity upon systemic administration, C57BL/6J mice received dose administration by single intravenous injection via tail vein with LNP formulations (individual or pooled) in PBS, at different dose (0.25-3 mg/kg) levels of firefly luciferase mRNA. At predetermined time points (4-6 hours post-injection), the animals were anesthetized via isoflurane and subjected to in-life imaging sessions for bioluminescence using an In Vivo Imaging System (IVIS). All animals were dosed with D-Luciferin at 15 mg/mL via subcutaneous (SC) injection at 0.2 mL/animal. Animals had their abdomen hair shaved using an animal trimmer. They were then placed so their shaved belly faced up toward the IVIS camera. Whole body imaging sessions were performed 10-15 minutes following D-Luciferin administration.
# For in detail organ distribution and activity of LNP formulations, ex vivo imaging sessions were also performed. All animals received SC D-Luciferin and were then euthanized by isoflurane overdose, followed by cardiac perfusion with saline. Following perfusion, the organs were collected and subjected to IVIS imaging for luminescence within 10-15 minutes of D-Luciferin injection.
# All IVIS images were processed with a computer software to identify the regions of interests for individual organs to detect the total flux (p/s) values as luminescence quantification. Then the total flux values were graphed to evaluate the in vivo activity in each collected organ.
# Small rodent biodistribution studies were performed in mice according to the General Study Protocols in Example 3(a). LNPs incorporating lipid compounds were prepared in Formulation F2, with MC3 as lipid compound (Cayman Chemical) prepared using Formulation F2 for comparison. LNP pools (with firefly luciferase mRNA encapsulated) were injected into mice at varying doses, and organ mean total flux (p/s) results (measuring luciferase activity) were then collected according to Example 3(a).
# LNPs comprising MC3 used as a control and for cross-mouse comparison. Dose is in mg/kg; LC is Lipid Compound according to Table 1.
# Additional screening results for Compounds 7, 13, 14, 26, 33, 38, 39, 40, 48, 60, 61, 89, 103, and 109 in spleen, femur, and muscle are shown in FIG. 7A, FIG. 7B, and FIG. 7C, with MC3 as a used as a control for comparison.
Compound,Organ Mean Total Flux Femur,Organ Mean Total Flux Heart,Organ Mean Total Flux Kidney,Organ Mean Total Flux Liver,Organ Mean Total Flux Lung,Organ Mean Total Flux Muscle,Organ Mean Total Flux Pancreas,Organ Mean Total Flux Spleen
"CCCCC/C=C\CCOC(=O)CCCCCCC(=O)OCC(COC(=O)CCCCCCC(=O)OCC/C=C\CCCCC)(COC(=O)CCCCCCC(=O)OCC/C=C\CCCCC)COC(=O)CCC(CCCCCC)OC(=O)OCCCN1CCCC1 (centres unmarked) [Compound 31, O8-[2,2-bis[[8-[(Z)-non-3-enoxy]-8-oxo-octanoyl]oxymethyl]-3-[4-(3-pyrrolidin-1-ylpropoxycarbonyloxy)decanoyloxy]propyl]O1-[(Z)-non-3-enyl]octanedioate]",0.9 p/s (×10^6),0.1 p/s (×10^6),0.1 p/s (×10^6),26.8 p/s (×10^6),1.2 p/s (×10^6),1.0 p/s (×10^6),0.2 p/s (×10^6),2.0 p/s (×10^6)

# Same assay, conditions: Mouse 6, dose 0.5 mg/kg, luciferase mRNA
Compound,Organ Mean Total Flux Femur,Organ Mean Total Flux Heart,Organ Mean Total Flux Kidney,Organ Mean Total Flux Liver,Organ Mean Total Flux Lung,Organ Mean Total Flux Muscle,Organ Mean Total Flux Pancreas,Organ Mean Total Flux Spleen
"CCCCC/C=C\CCOC(=O)CCCCCCC(=O)OCC(COC(=O)CCCCCCC(=O)OCC/C=C\CCCCC)(COC(=O)CCCCCCC(=O)OCC/C=C\CCCCC)COC(=O)CCC(CCCCCC)OC(=O)NCCN(C)CC (centres unmarked) [Compound 29, O8-[2-[4-[2-[ethyl(methyl)amino]ethylcarbamoyloxy]decanoyloxymethyl]-3-[8-[(Z)-non-3-enoxy]-8-oxo-octanoyl]oxy-2-[[8-[(Z)-non-3-enoxy]-8-oxooctanoyl]oxymethyl]propyl]O1-[(Z)-non-3-enyl]octanedioate]",4.2 p/s (×10^6),3.9 p/s (×10^6),3.2 p/s (×10^6),1913 p/s (×10^6),11.4 p/s (×10^6),10.3 p/s (×10^6),1.4 p/s (×10^6),3.3 p/s (×10^6)
"CCCCCCCCOC(=O)CCCCCCC(=O)OCC(COC(=O)CCCCCCC(=O)OCCCCCCCC)(COC(=O)CCCCCCC(=O)OCCCCCCCC)COC(=O)CCC(CCCCCC)OC(=O)NCCN1CCCC1 (centres unmarked) [Compound 33, O8-[2,2-bis[(8-octoxy-8-oxo-octanoyl)oxymethyl]-3-[4-(2-pyrrolidin-1-ylethylcarbamoyloxy)decanoyloxy]propyl]O1-octyl octanedioate]",21.3 p/s (×10^6),2.8 p/s (×10^6),3.0 p/s (×10^6),1024 p/s (×10^6),16.9 p/s (×10^6),53.7 p/s (×10^6),9.2 p/s (×10^6),30.1 p/s (×10^6)
"CCCCCCCCOC(=O)CCCCCC(=O)OCC(COC(=O)CCCCCC(=O)OCCCCCCCC)(COC(=O)CCCCCC(=O)OCCCCCCCC)COC(=O)CCC(CCCCCC)OC(=O)NCCN1CCCC1 (centres unmarked) [Compound 34, O7-[2,2-bis[(7-octoxy-7-oxo-heptanoyl)oxymethyl]-3-[4-(2-pyrrolidin-1-ylethylcarbamoyloxy)decanoyloxy]propyl]O1-octyl heptanedioate]",10.5 p/s (×10^6),3.3 p/s (×10^6),6.7 p/s (×10^6),1610 p/s (×10^6),20.2 p/s (×10^6),28.3 p/s (×10^6),12.8 p/s (×10^6),39.4 p/s (×10^6)
"CCCCCCCCCCOC(=O)CCCCCCC(=O)OCC(COC(=O)CCCCCCC(=O)OCCCCCCCCCC)(COC(=O)CCCCCCC(=O)OCCCCCCCCCC)COC(=O)CCC(CCCCCC)OC(=O)NCCN1CCCC1 (centres unmarked) [Compound 35, O8-[2,2-bis[(8-decoxy-8-oxo-octanoyl)oxymethyl]-3-[4-(2-pyrrolidin-1ylethylcarbamoyloxy)decanoyloxy]propyl]O1-decyloctanedioate]",4.2 p/s (×10^6),1.3 p/s (×10^6),1.3 p/s (×10^6),850.3 p/s (×10^6),11.0 p/s (×10^6),15.5 p/s (×10^6),2.5 p/s (×10^6),5.4 p/s (×10^6)
"CCCCCCCCCCOC(=O)CCCCCC(=O)OCC(COC(=O)CCCCCC(=O)OCCCCCCCCCC)(COC(=O)CCCCCC(=O)OCCCCCCCCCC)COC(=O)CCC(CCCCCC)OC(=O)NCCN1CCCC1 (centres unmarked) [Compound 36, O7-[2,2-bis[(7-decoxy-7-oxo-heptanoyl)oxymethyl]-3-[4-(2-pyrrolidin-1-ylethylcarbamoyloxy)decanoyloxy]propyl]O1-decyl heptanedioate]",3.6 p/s (×10^6),3.7 p/s (×10^6),2.7 p/s (×10^6),2330 p/s (×10^6),16.5 p/s (×10^6),6.0 p/s (×10^6),1.2 p/s (×10^6),6.1 p/s (×10^6)
"CCCCCCCC(C)OC(=O)CCCCCC(=O)OCC(COC(=O)CCCCCC(=O)OC(C)CCCCCCC)(COC(=O)CCCCCC(=O)OC(C)CCCCCCC)COC(=O)CCC(CCCCCC)OC(=O)NCCN1CCCC1 (centres unmarked) [Compound 38, O1-[2,2-bis[[7-(1-methyloctoxy)-7-oxo-heptanoyl]oxymethyl]-3-[4-(2-pyrrolidin-1-ylethylcarbamoyloxy)decanoyloxy]propyl]O7-(1-methyloctyl) heptanedioate]",9.8 p/s (×10^6),11.0 p/s (×10^6),8.1 p/s (×10^6),6770 p/s (×10^6),33.3 p/s (×10^6),23.5 p/s (×10^6),2.6 p/s (×10^6),27.2 p/s (×10^6)
"CCCCCCCCC(C)OC(=O)CCCCCC(=O)OCC(COC(=O)CCCCCC(=O)OC(C)CCCCCCCC)(COC(=O)CCCCCC(=O)OC(C)CCCCCCCC)COC(=O)CCC(CCCCCC)OC(=O)NCCN1CCCC1 (centres unmarked) [Compound 40, O1-[2,2-bis[[7-(1-methylnonoxy)-7-oxo-heptanoyl]oxymethyl]-3-[4-(2-pyrrolidin-1-ylethylcarbamoyloxy)decanoyloxy]propyl]O7-(1-methylnonyl)heptanedioate]",10.9 p/s (×10^6),6.0 p/s (×10^6),5.1 p/s (×10^6),3230 p/s (×10^6),27.7 p/s (×10^6),34.4 p/s (×10^6),4.6 p/s (×10^6),6.4 p/s (×10^6)

# Same assay, conditions: Mouse 11, dose 0.5 mg/kg, luciferase mRNA
Compound,Organ Mean Total Flux Femur,Organ Mean Total Flux Heart,Organ Mean Total Flux Kidney,Organ Mean Total Flux Liver,Organ Mean Total Flux Lung,Organ Mean Total Flux Muscle,Organ Mean Total Flux Pancreas,Organ Mean Total Flux Spleen
"CCCCCCCC(C)OC(=O)CCCCCCC(=O)OCC(COC(=O)CCCCCCC(=O)OC(C)CCCCCCC)(COC(=O)CCCCCCC(=O)OC(C)CCCCCCC)COC(=O)CCC(CCCCCC)OC(=O)NCCN1CCCC1 (centres unmarked) [Compound 37, O1-[2,2-bis[[8-(1-methyloctoxy)-8-oxo-octanoyl]oxymethyl]-3-[4-(2-pyrrolidin-1-ylethylcarbamoyloxy)decanoyloxy]propyl]O8-(1-methyloctyl) octanedioate]",2.2 p/s (×10^6),1.9 p/s (×10^6),0.8 p/s (×10^6),1737 p/s (×10^6),10.5 p/s (×10^6),5.2 p/s (×10^6),0.6 p/s (×10^6),2.5 p/s (×10^6)
"CCCCCCCCC(C)OC(=O)CCCCCCC(=O)OCC(COC(=O)CCCCCCC(=O)OC(C)CCCCCCCC)(COC(=O)CCCCCCC(=O)OC(C)CCCCCCCC)COC(=O)CCC(CCCCCC)OC(=O)NCCN1CCCC1 (centres unmarked) [Compound 39, O1-[2,2-bis[[8-(1-methylnonoxy)-8-oxo-octanoyl]oxymethyl]-3-[4-(2-pyrrolidin-1-ylethylcarbamoyloxy)decanoyloxy]propyl]O8-(1-methylnonyl) octanedioate]",2.6 p/s (×10^6),6.5 p/s (×10^6),2.3 p/s (×10^6),3390 p/s (×10^6),19.6 p/s (×10^6),11.0 p/s (×10^6),1.1 p/s (×10^6),2.9 p/s (×10^6)

# Reference: US20260234115A1, “LIPID COMPOUNDS, COMPOSITIONS, AND USES THEREOF” (Liberate Bio, Inc., priority 2023, published 2026)
